Reference: US8742135B1, “Compound amycolamicin, method for producing the same, and use of the same” (Microbial Chemistry Research Foundation, priority 2009, dated 2014)

Legend:
Type in all cases: cell-based
[1] = test system: H. infulenzae IID986; assay: MIC, Muller Hinton agar with sheep blood, 5% CO2 (Test Example 2); conditions: Haemophilus, Muller Hinton agar + sheep blood 5% by volume
[2] = test system: H. infulenzae T196; assay: as above; conditions: Haemophilus, Muller Hinton agar + sheep blood 5% by volume
[3] = test system: Haemophilus infulenzae IID938; assay: as above; conditions: Muller Hinton agar + sheep blood 5% by volume
[4] = test system: A. pleuropneumoniae Hi-1; assay: MIC, Muller Hinton agar with Fields enrichment, 5% CO2 (Test Example 4); conditions: Actinobacillus pleuropneumoniae, HI1, Muller Hinton agar + Fields enrichment 5% by volume
Description: (§1) According to the standard method of Japanese Society of Chemotherapy, the amycolamicin was measured for antimicrobial spectrum against bacteria causing pneumonia in domestic livestock other than those listed in Table 3 in the Muller Hinton agar medium supplemented with Fields enrichment (5% by volume) by the multiple dilution method in an atmosphere of 5% by volume CO2.

[5] = test system: Histophilus somni 23N2359; assay: as above; conditions: Muller Hinton agar + Fields enrichment 5% by volume
Description: as §1

[6] = test system: A. pleuropneumoniae CH-1; assay: as above; conditions: Actinobacillus pleuropneumoniae, CH1, Muller Hinton agar + Fields enrichment 5% by volume
Description: as §1

[7] = test system: A. pleuropneumoniae M-1; assay: as above; conditions: Actinobacillus pleuropneumoniae, M1, Muller Hinton agar + Fields enrichment 5% by volume
Description: as §1

[8] = test system: A. pleuropneumoniae 7H-3; assay: as above; conditions: Actinobacillus pleuropneumoniae, 7H3, Muller Hinton agar + Fields enrichment 5% by volume
Description: as §1

[9] = test system: Actinobacillus pleuropneumoniae NB001; assay: as above; conditions: Muller Hinton agar + Fields enrichment 5% by volume
Description: as §1

[10] = test system: A. pleuropneumoniae Shop1421; assay: as above; conditions: Actinobacillus pleuropneumoniae, Muller Hinton agar + Fields enrichment 5% by volume
Description: as §1

[11] = test system: A. pleuropneumoniae 6H-8; assay: as above; conditions: Actinobacillus pleuropneumoniae, 6H8, Muller Hinton agar + Fields enrichment 5% by volume
Description: as §1

[12] = test system: A. pleuropneumoniae O-223; assay: as above; conditions: Actinobacillus pleuropneumoniae, O223, Muller Hinton agar + Fields enrichment 5% by volume
Description: as §1

[13] = test system: A. pleuropneumoniae YN; assay: as above; conditions: Actinobacillus pleuropneumoniae, Muller Hinton agar + Fields enrichment 5% by volume
Description: as §1

[14] = test system: A. pleuropneumoniae SHP-17; assay: as above; conditions: Actinobacillus pleuropneumoniae, SHP17, Muller Hinton agar + Fields enrichment 5% by volume
Description: as §1

[15] = test system: A. pleuropneumoniae CH-2(H4024); assay: as above; conditions: Actinobacillus pleuropneumoniae, Muller Hinton agar + Fields enrichment 5% by volume
Description: as §1

[16] = test system: A. pleuropneumoniae HPT-1; assay: as above; conditions: Actinobacillus pleuropneumoniae, HPT1, Muller Hinton agar + Fields enrichment 5% by volume
Description: as §1

[17] = test system: Klebsiella pneumoniae PC1602; assay: MIC, Muller Hinton agar, multiple dilution method (Test Example 1); conditions: Muller Hinton agar medium
Description: (§2) According to the standard method of Japanese Society of Chemotherapy, the amycolamicin was measured for antimicrobial spectrum against various microorganisms including drug-resistant bacteria (e.g., methicilline resistant bacteria and vancomycin resistant bacteria) in the Muller Hinton agar medium by the multiple dilution method.

[18] = test system: S. aureus Smith; assay: as above; conditions: Staphylococcus aureus, Muller Hinton agar medium
Description: as §2

[19] = test system: S. aureus TY-04282(MRSA); assay: as above; conditions: Staphylococcus aureus, Muller Hinton agar medium
Description: as §2

[20] = test system: Staphylococcus aureus FDA209P; assay: as above; conditions: Muller Hinton agar medium
Description: as §2

[21] = test system: Ent. faecium NCTCI12204(VRE); assay: as above; conditions: Enterococcus faecium, Muller Hinton agar medium
Description: as §2

[22] = test system: S. aureus MS9610; assay: as above; conditions: Staphylococcus aureus, Muller Hinton agar medium
Description: as §2

[23] = test system: S. aureus MRSA No.5; assay: as above; conditions: Staphylococcus aureus, Muller Hinton agar medium
Description: as §2

[24] = test system: Ent. faecalis NCTC12201(VRE); assay: as above; conditions: Enterococcus faecalis, Muller Hinton agar medium
Description: as §2

[25] = test system: Ent faecium NCTCI12202(VRE); assay: as above; conditions: Enterococcus, Muller Hinton agar medium
Description: as §2

[26] = test system: Enterococcus faecalis JCM 5803; assay: as above; conditions: JCM5803, Muller Hinton agar medium
Description: as §2

[27] = test system: Ent. faecium JCM 5804; assay: as above; conditions: Enterococcus faecium, JCM5804, Muller Hinton agar medium
Description: as §2

[28] = test system: S. aureus MS16526(MRSA); assay: as above; conditions: Staphylococcus aureus, Muller Hinton agar medium
Description: as §2

[29] = test system: E. coli K-12; assay: as above; conditions: Escherichia coli, K12, Muller Hinton agar medium
Description: as §2

[30] = test system: S. aureus MRSA No.17; assay: as above; conditions: Staphylococcus aureus, Muller Hinton agar medium
Description: as §2

[31] = test system: Escherichia coli NIHJ; assay: as above; conditions: Muller Hinton agar medium
Description: as §2

[32] = test system: Ent. faecalis NCTC12203(VRE); assay: as above; conditions: Enterococcus faecalis, Muller Hinton agar medium
Description: as §2

[33] = test system: H. infulenzae IID988; assay: MIC, Muller Hinton agar with sheep blood, 5% CO2 (Test Example 2); conditions: Haemophilus, Muller Hinton agar + sheep blood 5% by volume
[34] = test system: Streptococcus pneumoniae S-223; assay: as above; conditions: S223, Muller Hinton agar + sheep blood 5% by volume
[35] = test system: H. infulenzae IID985; assay: as above; conditions: Haemophilus, Muller Hinton agar + sheep blood 5% by volume
[36] = test system: H. infulenzae IID987; assay: as above; conditions: Haemophilus, Muller Hinton agar + sheep blood 5% by volume
[37] = test system: Pasteurella multocida No. 6; assay: MIC, brain heart infusion agar, multiple dilution method (Test Example 3); conditions: brain heart infusion agar medium
Description: (§3) According to the standard method of Japanese Society of Chemotherapy, the amycolamicin was measured for antimicrobial spectrum against bacteria causing pneumonia in domestic livestock in the brain heart infusion agar medium by the multiple dilution method.

[38] = test system: Mannheimia haemolytica N791; assay: as above; conditions: brain heart infusion agar medium
Description: as §3

[39] = test system: P. multocida Kobe; assay: as above; conditions: Pasteurella multocida, brain heart infusion agar medium
Description: as §3

[40] = test system: P. multocida TS-8; assay: as above; conditions: Pasteurella multocida, TS8, brain heart infusion agar medium
Description: as §3

[41] = test system: M. haemolytica N811; assay: as above; conditions: Mannheimia haemolytica, brain heart infusion agar medium
Description: as §3

[42] = test system: P. multocida M-17; assay: as above; conditions: Pasteurella multocida, M17, brain heart infusion agar medium
Description: as §3

Measured: MIC

C=C1CCC(OC2CC(O)(C(C)NC(=O)c3[nH]c(C)c(Cl)c3Cl)C(O)C(C)O2)C2C=CC(C)C(C(=O)C3=C(O)C(C(C)C)N(C4OC(C)C(OC(N)=O)C(OC(C)=O)C4OC)C3=O)C12 (stereo not drawn) [amycolamicin]
12.5 µg/mL: [29] | [31]
0.39 µg/mL: [18] | [19] | [20] | [22] | [23] | [28] | [30] | [34]
0.2 µg/mL: [2] | [5] | [26] | [32]
1.56 µg/mL: [6] | [8] | [9] | [11] | [12] | [14] | [15] | [16] | [37]
0.1 µg/mL: [24]
6.25 µg/mL: [17]
3.13 µg/mL: [4] | [10]
0.78 µg/mL: all other assays above
